Assay: xn = mol fraction of the nth substance listed

OC1CCCCCC1 + OCCO
viscosity [mPa·s], 100 kPa
Conditions	293.15 K	298.15 K	303.15 K	308.15 K	313.15 K	318.15 K
x1 = 0.0095	20.34	16.92	13.81	11.37	9.587	7.9
x1 = 0.0395	20.45	16.98	13.85	11.42	9.625	7.92
x1 = 0.0578	20.52	17.02	13.9	11.44	9.638	7.931
x1 = 0.0878	20.65	17.12	13.95	11.49	9.678	7.957
x1 = 0.1	20.71	17.16	13.98	11.51	9.694	7.972
x1 = 0.1961	21.18	17.53	14.22	11.7	9.819	8.064
x1 = 0.305	21.95	18.16	14.85	12.27	10.25	8.379
x1 = 0.3969	22.89	19.04	15.54	12.83	10.68	8.723
x1 = 0.4993	24.41	20.37	16.58	13.61	11.32	9.271
x1 = 0.5877	26.32	21.93	17.76	14.49	12.06	9.883
x1 = 0.6993	29.93	24.59	19.71	15.94	13.24	10.77
x1 = 0.7996	34.97	28.03	22.14	17.65	14.57	11.68
x1 = 0.8977	45.8	36.3	28.9	22.7	19	15.7

O=C(O)C(Cl)(Cl)Cl + Oc1ccccc1
323.15 K, 101 kPa
Conditions	viscosity [mPa·s]
x2 = 0.1005	5.083
x2 = 0.1834	5.115
x2 = 0.245	5.126
x2 = 0.3305	5.085
x2 = 0.4032	5.012
x2 = 0.5025	4.779
x2 = 0.5925	4.683
x2 = 0.6928	4.342
x2 = 0.76	4.127
x2 = 0.8544	3.811
x2 = 0.9117	3.569

[I-].[K+] + [2H]O[2H]
viscosity [mPa·s], 101 kPa
Conditions	x1 = 0.011	x1 = 0.021	x1 = 0.036	x1 = 0.053	x1 = 0.076	x1 = 0.121
298.15 K	1.036	0.97	0.942	0.936	0.972	1.098
308.15 K	0.829	0.794	0.776	0.783	0.823	0.942
318.15 K	0.692	0.667	0.662	0.68	0.715	0.827

CCCC(=O)OCC + c1ccccc1
Conditions	viscosity [mPa·s]
303.15 K, 101.33 kPa, x2 = 0.0662	0.591
303.15 K, 101.33 kPa, x2 = 0.2048	0.581
303.15 K, 101.33 kPa, x2 = 0.3293	0.571
303.15 K, 101.33 kPa, x2 = 0.4394	0.563
303.15 K, 101.33 kPa, x2 = 0.5452	0.559
303.15 K, 101.33 kPa, x2 = 0.5996	0.555
303.15 K, 101.33 kPa, x2 = 0.6452	0.554
303.15 K, 101.33 kPa, x2 = 0.7372	0.551
303.15 K, 101.33 kPa, x2 = 0.8161	0.551
303.15 K, 101.33 kPa, x2 = 0.8938	0.554
303.15 K, 101.33 kPa, x2 = 0.9658	0.555
308.15 K, 101.3 kPa, x1 = 0.0473	0.534
308.15 K, 101.3 kPa, x1 = 0.099	0.531
308.15 K, 101.3 kPa, x1 = 0.1937	0.528
308.15 K, 101.3 kPa, x1 = 0.2987	0.526
308.15 K, 101.3 kPa, x1 = 0.4059	0.527
308.15 K, 101.3 kPa, x1 = 0.4998	0.529
308.15 K, 101.3 kPa, x1 = 0.5753	0.533
308.15 K, 101.3 kPa, x1 = 0.7021	0.541
308.15 K, 101.3 kPa, x1 = 0.7978	0.55
308.15 K, 101.3 kPa, x1 = 0.903	0.562
308.15 K, 101.3 kPa, x1 = 0.9514	0.569
313.15 K, 101.33 kPa, x2 = 0.2126	0.539
313.15 K, 101.33 kPa, x2 = 0.4055	0.521
313.15 K, 101.33 kPa, x2 = 0.507	0.513
313.15 K, 101.33 kPa, x2 = 0.6031	0.506
313.15 K, 101.33 kPa, x2 = 0.8066	0.496
318.15 K, 101.3 kPa, x1 = 0.0473	0.47
318.15 K, 101.3 kPa, x1 = 0.099	0.471
318.15 K, 101.3 kPa, x1 = 0.1937	0.472
318.15 K, 101.3 kPa, x1 = 0.2987	0.476
318.15 K, 101.3 kPa, x1 = 0.4059	0.481
318.15 K, 101.3 kPa, x1 = 0.4998	0.486
318.15 K, 101.3 kPa, x1 = 0.5753	0.491
318.15 K, 101.3 kPa, x1 = 0.7021	0.502
318.15 K, 101.3 kPa, x1 = 0.7978	0.512
318.15 K, 101.3 kPa, x1 = 0.903	0.525
318.15 K, 101.3 kPa, x1 = 0.9514	0.531

CCCCN + c1ccccc1
viscosity [mPa·s], 101 kPa
Conditions	303.15 K	313.15 K
x1 = 0.009356	0.5633	0.4919
x1 = 0.01948	0.5628	0.4907
x1 = 0.02841	0.5622	0.4905
x1 = 0.03798	0.562	0.4893
x1 = 0.048	0.5618	0.4884
x1 = 0.0558	0.536	–
x1 = 0.05882	0.5617	0.4876
x1 = 0.0669	0.5608	0.4869
x1 = 0.07642	0.5598	0.4861
x1 = 0.08586	0.5588	0.4852
x1 = 0.1165	0.516	–
x1 = 0.2036	0.494	–
x1 = 0.2875	0.479	–
x1 = 0.382	0.465	–
x1 = 0.5164	0.453	–
x1 = 0.5676	0.451	–
x1 = 0.6631	0.448	–
x1 = 0.7656	0.447	–
x1 = 0.8602	0.446	–
x1 = 0.9278	0.444	–
x2 = 0.0974	0.4454	–
x2 = 0.1974	0.4466	–
x2 = 0.5007	0.4542	–
x2 = 0.6051	0.4738	–
x2 = 0.7995	0.5056	–
x2 = 0.9004	0.5322	–

CC[N+](=O)[O-] + c1ccccc1
293.15 K, 101.33 kPa
Conditions	viscosity [mPa·s]
x1 = 0.0901	0.628
x1 = 0.1956	0.611
x1 = 0.2856	0.602
x1 = 0.3897	0.595
x1 = 0.4893	0.594
x1 = 0.5827	0.597
x1 = 0.6952	0.608
x1 = 0.7869	0.622
x1 = 0.879	0.644
